Laboratory results taken from PubChem BioAssay (NCI).
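Protocol summary: plate cells (96-well), add compound at 5 concentrations, incubate 48 h, interpolate endpoints linearly. TGI marks complete inhibition of growth.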

What was measured:
Assay in all cases: inhibition of tumour cell growth, NCI panel, 48 h
SK-MEL-5 melanoma = system: SK-MEL-5 melanoma
KM12 colon = system: KM12 colon
SF-539 CNS = system: SF-539 CNS
HOP-92 NSCLC = system: HOP-92 NSCLC
UO-31 renal = system: UO-31 renal
NCI-H226 lung = system: NCI-H226 lung
HCT-15 colon = system: HCT-15 colon
HCT-116 colon = system: HCT-116 colon
K-562 leukemia = system: K-562 leukemia
MALME-3M melanoma = system: MALME-3M melanoma
OVCAR-8 ovarian = system: OVCAR-8 ovarian
NCI/ADR-RES ovarian = system: NCI/ADR-RES ovarian
786-0 renal = system: 786-0 renal
MDA-MB-435 = system: MDA-MB-435

Row | Structure (SMILES) | TGI (SK-MEL-5 melanoma) [µM] | TGI (KM12 colon) [µM] | TGI (SF-539 CNS) [µM] | TGI (HOP-92 NSCLC) [µM] | TGI (UO-31 renal) [µM] | TGI (NCI-H226 lung) [µM] | TGI (HCT-15 colon) [µM] | TGI (HCT-116 colon) [µM] | TGI (K-562 leukemia) [µM] | TGI (MALME-3M melanoma) [µM] | TGI (OVCAR-8 ovarian) [µM] | TGI (NCI/ADR-RES ovarian) [µM] | TGI (786-0 renal) [µM] | TGI (MDA-MB-435) [µM]
1 | Cc1c2c(cc3c1[nH]c1ccccc13)C=NCC2 | 12.7 | 27.8 | 11.9 | 16.4 | 59.9 | 50.2 | 61.8 | 14.6 | 20.8 | 11.7 | 36.4 | 63.3 |  | 
2 | O=c1c(SSc2coc3cc(F)ccc3c2=O)coc2cc(F)ccc12 | 46.2 | 28.5 | > 100 |  | 52.7 | > 100 | 33.3 | 19.3 | 64.2 | > 100 | > 100 | 78.8 | 21.6 | 36.3
3 | C=C1C(=O)OC2(C)C3CCC(C3)C12 (stereo not given) | > 100 | > 100 | > 100 | 87.4 | > 100 | > 100 | > 100 | > 100 | > 100 | > 100 | > 100 |  | > 100 | 
4 | COc1ccccc1-c1cc(=O)c2ccccc2[nH]1 |  | > 100 | > 100 |  | > 100 | > 100 | > 100 | > 100 | > 100 | > 100 | > 100 |  | > 100 | 
5 | CC(C)C(C/C=C1\CC(CO)(COC(=O)c2ccccc2)OC1=O)C(C)C (stereo not given) | 29.7 | 35.6 |  | 29.3 | 32.4 | 39.8 | 41 | 31 | 44.1 | 31.9 | 36 | 45 | 28.3 | > 100
6 | COc1ccc2cc1Oc1ccc(cc1)C(Sc1ccccc1)CCOC(=O)CC2 (stereo not given) | > 100 | > 100 | > 100 |  | > 100 | > 100 | > 100 | > 100 | > 100 | > 100 | > 100 | > 100 | > 100 | > 100
7 | Cc1ccc(S(=O)(=O)/N=C(\NN)Nc2ccc(Cl)cc2)cc1 | > 100 | > 100 | > 100 | > 100 | > 100 | > 100 | > 100 | > 100 | > 100 |  | > 100 | > 100 | > 100 | 
8 | FC(F)(F)c1ccccc1N1CCN(c2nc(-c3cccs3)nc3ccc(Br)cc23)CC1 | 30.9 | 83.7 | > 100 |  | > 100 | > 100 | > 100 | > 100 | > 100 | 55.9 | > 100 | > 100 | > 100 | 63.3
9 | O=C(NCCCCCCNC(=O)n1cc(F)c(=O)[nH]c1=O)NCCCOCCOCCCNC(=O)C(O)C(O)C(O)C(O)CO (stereo not given) | > 2.5 | > 2.5 | > 2.5 | > 2.5 | > 2.5 | > 2.5 | > 2.5 | > 2.5 | > 2.5 | > 2.5 | > 2.5 | > 2.5 |  | 
